Results taken from US20240365781A1, “SYNERGISTICALLY EFFECTIVE HERBICIDE COMPOSITION COMPRISING PELARGONIC ACID AND FLAZASULFURON” (Belchim Crop Protection NV, priority 2017, published 2024).

Key:
Assay in all cases: post-emergence field trial under rows of vines, 150-200 L water/ha (Examples 6-9)
Type in all cases: in vivo
[1] = system: Oxalis latifolia; details: flazasulfuron 40 g/ha
Excerpt: (§1) The expected activity of a given combination of two or three herbicides can be calculated as follows according to a calculation method by Colby (cf. COLBY, S. R.: “Calculating synergistic and antagonistic responses of herbicide combinations”, • Weeds 15, pages 20-22, 1967): • If X=% damage by herbicide (A) at an application rate of m g/ha, • Y=% damage by herbicide (B) at an application rate of n g/ha, • E=the expected damage by herbicides (A) and (B) at application rates of m and n […] and, • then for a combination:
(§2) Individual compositions comprising pelargonic acid or flazasulfuron are compared with a herbicide composition according to the invention comprising pelargonic acid and flazasulfuron.
(§3) Herbicidal activity was determined by performing a post-emergence test. […] The corresponding mixture was in the form of a spray solution. Besides, spray solutions of individual compositions comprising pelargonic acid or flazasulfuron were used.
(§4) The spray solution was applied on plants of unwanted vegetation present on fields where perennial crops were grown.
(§5) After 5 to 88 days after application of the spray solution, the degree of damage to the unwanted vegetation is rated in % of plants of unwanted vegetation that were killed. Tests were performed on test fields (field trials).

[2] = system: Stellaria media; details: flazasulfuron 40 g/ha
Excerpt: as §1, §2, §3, §4, §5

[3] = system: Senecio vulgaris; details: flazasulfuron 40 g/ha
Excerpt: as §1, §2, §3, §4, §5

[4] = system: Epilobium tetragonum; details: flazasulfuron 40 g/ha
Excerpt: as §1, §2, §3, §4, §5

[5] = system: Chenopodium album; details: flazasulfuron 40 g/ha
Excerpt: as §1, §2, §3, §4, §5

[6] = system: Digitaria sanguinalis; details: flazasulfuron 40 g/ha
Excerpt: as §1, §2, §3, §4, §5

[7] = system: Sonchus oleracea; details: flazasulfuron 40 g/ha
Excerpt: as §1, §2, §3, §4, §5

[8] = system: Convolvulus arvensis; details: flazasulfuron 40 g/ha
Excerpt: as §1, §2, §3, §4, §5

[9] = system: Bromus oxyodon; details: flazasulfuron 40 g/ha
Excerpt: as §1, §2, §3, §4, §5

[10] = system: Geranium molle; details: 15 d, flazasulfuron 40 g/ha
Excerpt: as §1, §2, §3, §4, §5

[11] = system: Veronica persicae; details: flazasulfuron 40 g/ha
Excerpt: as §1, §2, §3, §4, §5

[12] = 7 d, pelargonic acid 10880 g/ha
[13] = 14 d, pelargonic acid 5440 g/ha
[14] = 14 d, pelargonic acid 6800 g/ha
[15] = 14 d, pelargonic acid 8160 g/ha
[16] = 14 d, pelargonic acid 10880 g/ha
[17] = 28 d, pelargonic acid 6800 g/ha
[18] = 28 d, pelargonic acid 5440 g/ha
[19] = 28 d, pelargonic acid 8160 g/ha
[20] = 28 d, pelargonic acid 10880 g/ha
[21] = 31 d, pelargonic acid 5440 g/ha
[22] = 31 d, pelargonic acid 8160 g/ha
[23] = 31 d, pelargonic acid 10880 g/ha
[24] = 58 d, pelargonic acid 5440 g/ha
[25] = 58 d, pelargonic acid 8160 g/ha
[26] = 58 d, pelargonic acid 10880 g/ha
[27] = 27 d, pelargonic acid 6800 g/ha
[28] = 27 d, pelargonic acid 8160 g/ha
[29] = 27 d, pelargonic acid 10880 g/ha
[30] = 56 d, pelargonic acid 6800 g/ha
[31] = 56 d, pelargonic acid 8160 g/ha
[32] = 56 d, pelargonic acid 10880 g/ha
[33] = 27 d, pelargonic acid 5440 g/ha
[34] = 56 d, pelargonic acid 5440 g/ha

CCCCCCCCC(=O)O [Pelargonic acid, nonanoic acid]
herbicidal effect ([1]; 7 d, pelargonic acid 6800 g/ha): 54%
herbicidal effect ([1]; 7 d, pelargonic acid 8160 g/ha): 58%
herbicidal effect [1, 12]: 73%
herbicidal effect [1, 13]: 76%
herbicidal effect [1, 14]: 85%
herbicidal effect [1, 15]: 89%
herbicidal effect [1, 16]: 96%
herbicidal effect [1, 17]: 68%
herbicidal effect ([2]; 7 d, pelargonic acid 8160 g/ha): 49%
herbicidal effect [2, 12]: 54%
herbicidal effect [2, 13]: 69%
herbicidal effect [2, 14]: 75%
herbicidal effect [2, 15]: 66%
herbicidal effect [2, 16]: 80%
herbicidal effect [2, 18]: 80%
herbicidal effect [2, 17]: 84%
herbicidal effect [2, 19]: 86%
herbicidal effect [2, 20]: 93%
herbicidal effect ([3]; 7 d, pelargonic acid 5440 g/ha): 83%
herbicidal effect ([3]; 7 d, pelargonic acid 6800 g/ha): 89%
herbicidal effect [3, 13]: 80%
herbicidal effect [3, 14]: 89%
herbicidal effect [3, 15]: 98%
herbicidal effect [3, 21]: 60%
herbicidal effect ([3]; 31 d, pelargonic acid 6800 g/ha): 60%
herbicidal effect [3, 22]: 91%
herbicidal effect [3, 23]: 90%
herbicidal effect [3, 24]: 0%
herbicidal effect [3, 25]: 10%
herbicidal effect [3, 26]: 15%
herbicidal effect ([4]; 7 d, pelargonic acid 5440 g/ha): 49%
herbicidal effect ([4]; 7 d, pelargonic acid 8160 g/ha): 56%
herbicidal effect [4, 12]: 73%
herbicidal effect [4, 14]: 0%
herbicidal effect [4, 15]: 8%
herbicidal effect [4, 16]: 13%
herbicidal effect [4, 27]: 0%
herbicidal effect [4, 28]: 0%
herbicidal effect [4, 29]: 0%
herbicidal effect [4, 30]: 0%
herbicidal effect [4, 31]: 0%
herbicidal effect [4, 32]: 0%
herbicidal effect ([5]; 7 d, pelargonic acid 5440 g/ha): 60%
herbicidal effect [5, 12]: 91%
herbicidal effect [5, 13]: 60%
herbicidal effect [5, 16]: 91%
herbicidal effect [5, 21]: 45%
herbicidal effect [5, 22]: 74%
herbicidal effect [5, 23]: 78%
herbicidal effect [5, 24]: 23%
herbicidal effect ([5]; 58 d, pelargonic acid 6800 g/ha): 35%
herbicidal effect [5, 25]: 65%
herbicidal effect [5, 26]: 65%
herbicidal effect ([6]; 7 d, pelargonic acid 5440 g/ha): 35%
herbicidal effect ([6]; 7 d, pelargonic acid 6800 g/ha): 63%
herbicidal effect ([6]; 7 d, pelargonic acid 8160 g/ha): 48%
herbicidal effect [6, 12]: 54%
herbicidal effect [6, 13]: 10%
herbicidal effect [6, 14]: 58%
herbicidal effect [6, 15]: 43%
herbicidal effect [6, 16]: 49%
herbicidal effect [6, 33]: 10%
herbicidal effect [6, 27]: 20%
herbicidal effect [6, 28]: 26%
herbicidal effect [6, 29]: 5%
herbicidal effect [6, 34]: 0%
herbicidal effect [6, 30]: 8%
herbicidal effect [6, 31]: 0%
herbicidal effect [6, 32]: 0%
herbicidal effect [7, 13]: 25%
herbicidal effect [7, 14]: 45%
herbicidal effect [7, 15]: 25%
herbicidal effect [7, 16]: 28%
herbicidal effect [7, 33]: 0%
herbicidal effect [7, 27]: 13%
herbicidal effect [7, 28]: 0%
herbicidal effect [7, 29]: 0%
herbicidal effect [7, 34]: 0%
herbicidal effect [7, 30]: 0%
herbicidal effect [7, 31]: 0%
herbicidal effect [7, 32]: 0%
herbicidal effect ([8]; 7 d, pelargonic acid 5440 g/ha): 13%
herbicidal effect ([8]; 7 d, pelargonic acid 6800 g/ha): 0%
herbicidal effect ([8]; 7 d, pelargonic acid 8160 g/ha): 19%
herbicidal effect [8, 13]: 13%
herbicidal effect [8, 14]: 0%
herbicidal effect [8, 15]: 23%
herbicidal effect [8, 16]: 43%
herbicidal effect [8, 17]: 0%
herbicidal effect [8, 19]: 0%
herbicidal effect [8, 20]: 38%
herbicidal effect ([8]; 65 d, pelargonic acid 5440 g/ha): 0%
herbicidal effect ([8]; 65 d, pelargonic acid 6800 g/ha): 0%
herbicidal effect ([8]; 65 d, pelargonic acid 8160 g/ha): 0%
herbicidal effect ([8]; 65 d, pelargonic acid 10880 g/ha): 0%
herbicidal effect ([9]; 7 d, pelargonic acid 5440 g/ha): 10%
herbicidal effect ([9]; 7 d, pelargonic acid 6800 g/ha): 11%
herbicidal effect ([9]; 7 d, pelargonic acid 8160 g/ha): 15%
herbicidal effect [9, 12]: 18%
herbicidal effect [9, 13]: 11%
herbicidal effect [9, 14]: 16%
herbicidal effect [9, 15]: 20%
herbicidal effect [9, 16]: 23%
herbicidal effect [9, 18]: 8%
herbicidal effect [9, 17]: 11%
herbicidal effect [9, 19]: 16%
herbicidal effect [9, 20]: 18%
herbicidal effect ([10]; pelargonic acid 5440 g/ha): 0%
herbicidal effect ([10]; pelargonic acid 6800 g/ha): 3%
herbicidal effect ([10]; pelargonic acid 8160 g/ha): 0%
herbicidal effect ([10]; pelargonic acid 10880 g/ha): 0%
herbicidal effect ([11]; 7 d, pelargonic acid 5440 g/ha): 43%
herbicidal effect ([11]; 7 d, pelargonic acid 6800 g/ha): 55%
herbicidal effect ([11]; 7 d, pelargonic acid 8160 g/ha): 50%
herbicidal effect [11, 12]: 45%
herbicidal effect [11, 13]: 10%
herbicidal effect [11, 14]: 45%
herbicidal effect [11, 15]: 30%
herbicidal effect [11, 16]: 30%
herbicidal effect [11, 33]: 0%
herbicidal effect [11, 27]: 20%
herbicidal effect [11, 28]: 0%
herbicidal effect [11, 29]: 0%
herbicidal effect [11, 34]: 0%
herbicidal effect [11, 32]: 0%
